pIC50: −log10 of the molar value.
Columns and labels:
[1] = system: Human neutrophils; test: Binding of 125I-Factor X to neutrophils
Method: Human Factor X (Sigma or Hematologic Technologies Inc.) was labeled with ^125 I using Iodogen (Pierce Chemical Co.) Human neutrophils were isolated from heparinized blood according to the manufacturer's specification using Neutrophil Isolation Medium (Cardinal Associates, Santa Fe, N.M.) and washed three times with 5 mM EDTA-phosphate-buffered saline (PBS), pH 7.2, at 4° C. To eliminate platelet contamination,neutrophils were incubated with autologous serum containing 5 mM EDTA for 30 mins. at 37° C., washed three times with ice-cold PBS, pH 7.2, and resuspended in RPMI 1640 tissue culture medium (Whittaker M. A. Bioproducts, Walkersville, Md.) at 4° C. Binding of ^125 I-Factor X to neutrophils was measured based on a method described by Altieri et al. (1991) Science 254: 1200-1202. Briefly, 200 μl of neutrophils (1.5×10^7 /ml) were supplemented with 17.5 μl of 50 mM CaCl2, stimulated with 3.5 μl of 100 μM NH2 -formyl-Met-Leu-Phe (Sigma), and mixed with 30 μl of 10.3 μg/ml ^125 I-Factor X and 100 μl of 1.75 mM of peptide. Buffer alone and a peptide of scrambled sequence served as controls in each of the 3 experiments. After incubation for 20 mins. at room temperature, neutrophil-bound ^125 I-Factor X was separated from unbound ^125 I-Factor X by centrifugation of 300 μl aliquots through 50 μl of a mixture of Hi phenyl silicone oil DC 550 and methyl silicone oil DC 200 5:1 (Nye Inc. Specialty Lubricants, New Bedford, Mass.) at 12,000×g for 2 mins. Aliquots of the supernatant (cell free ^125 I-Factor X) and the cell pellet (cell bound ^125 I-Factor X) were counted in a gamma-counter. Nonspecific binding (~50,000 cpm) was determined by adding a 100 fold excess of unlabeled Factor X, and subtracted from total radioactivity (~500,000 cpm for controls).

[2] = system: Recognition of C3bi by 12.1F9; test: Peptide inhibition of recognition of C3bi by 12.1F9; format: binding

Filamentous hemagglutinin [native FHA]
inhibition of 125I-Factor X binding to neutrophils ([1]; peptides 0.5 mM, native FHA 0.3 μM, mAb IB4 100 μg/ml): 70±4% | pIC50 ([1]; read-out: IC50 of inhibition of 125I-Factor X binding): 7.00 | block of binding of 12.1F9 to C3bi [2]: blocked binding almost completely | Adherence index ([2]; peptides 50 μg/ml, normalized to a control value of 100): 16 ± 16
